Among the data in the supplement of paper PMC11061612 are Bliss excess values, retold here.

Assay in all cases: Bliss excess, mean over the matrix (fraction); higher = more synergy
Experiment [1] has as its system NCI-H2009 (Lung Adenocarcinoma). In a few lines: (§1)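 Cell lines grown in DMEM/F12 or RPMI with 10% FBS were plated in 1536-well plates and held 24 hours at 37°C, 5% CO2 before 72 hours of exposure to two-drug dose matrices, with DMSO typically at 0.2%. CellTiter-Glo 2.0 luminescence gave viability, which was converted to inhibition. Vehicle wells were set to 0 and blank wells to 1. Combination Emax is the second-highest inhibition in the matrix, and Bliss excess is the observed combination effect minus the expected EA + EB − EA·EB, where EA and EB are the single-agent effects.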

Experiment [2] deals with SBC-3 (Small Cell Lung Carcinoma). In a few lines: as §1
Experiment [3] deals with MRK-nu-1 (Breast Carcinoma). In outline:
as §1

Experiment [4] deals with SUP-HD1 (Hodgkin's Lymphoma). In outline: as §1
For experiment [5], the system named is JJN-3 (Plasma Cell Myeloma). In outline:
as §1

Experiment [6] deals with COR-L105 (Lung Adenocarcinoma). In a few lines:
as §1

In experiment [7] the test system is SBC-5 (Small Cell Lung Carcinoma). In a few lines: as §1
Experiment [8] relates to NCI-H1975 (Lung Adenocarcinoma). In outline:
as §1

For experiment [9], the system named is ATN-1 (T-Lymphoblastic Leukemia). In a few lines:
as §1

In experiment [10] the test system is L-363 (Plasma Cell Myeloma). In a few lines: as §1
Experiment [11] relates to SK-N-DZ (Neuroblastoma). In outline: as §1
Experiment [12] relates to RPMI-8402 (T-Lymphoblastic Leukemia). In a few lines: as §1
Experiment [13] concerns HT-3 (Cervical Carcinoma). In outline:
as §1

Experiment [14] relates to NCI-H1648 (Lung Adenocarcinoma). In outline:
as §1

For experiment [15], the system named is GRANTA-519 (B-Cell Non-Hodgkin's Lymphoma). In a few lines: as §1
The test system of experiment [16] is BC-1 (B-Cell Non-Hodgkin's Lymphoma). In outline:
as §1

Experiment [17] deals with NCI-H2452 (Mesothelioma). In outline: as §1
Experiment [18] relates to Daudi (Burkitt's Lymphoma). In outline:
as §1

Experiment [19] has as its system NCI-H1944 (Lung Adenocarcinoma). In a few lines: as §1
Experiment [20] concerns C2BBe1 (Colorectal Carcinoma). In a few lines:
as §1

In the case of `CN(CCO)CC[C@H](CSc1ccccc1)Nc1ccc(S(=O)(=O)NC(=O)c2ccc(N3CCC([C@@H](O)c4ccccc4-c4ccc(Cl)cc4)CC3)cc2)cc1S(=O)(=O)C(F)(F)F` [AZD4320] + CN(C)CCCOc1ccc(-c2ccc3ncc4c(c3c2)n(C2CCOCC2)c(=O)n4C)cn1 [AZD0156] (first compound max 1 µM, 7x7, partner max 1 µM), the Bliss excess in experiment [1] is -0.0424; in experiment [2] it was -0.0809; in experiment [3], -0.0133; in experiment [4], -0.0754; in [5], 0.0142; in experiment [6] it was -0.031. Besides, the Bliss excess is -0.0481 in [7]; -0.0414 in experiment [8]; -0.0231 in experiment [9]; -0.0005 in [10]; 0.0238 in experiment [11]; 0.0188 in experiment [12]. Moreover, the Bliss excess in experiment [13] was -0.0251; in [14] it was -0.0326; in experiment [15], 0.007; in experiment [16], -0.0228; in [17] it was -0.0287; in [18], -0.0133. Moreover, the results for the Bliss excess in experiment [19] and in [20] were -0.0289 and -0.0443, respectively.

As for `COc1cccc(OCCCN)c1-c1cc(Nc2cnc(C#N)cn2)n[nH]1` [Prexasertib] + C[C@@H]1COCCN1C2=NC(=NC(=C2)C3(CC3)[S@](=N)(=O)C)C4=C5C=CNC5=NC=C4 [AZD6738] (first compound max 1 µM, 7x7, partner max 10 µM), the Bliss excess was 0.0846 in experiment [1]; -0.0201 in experiment [2]; -0.0703 in experiment [3]; -0.0809 in experiment [4]; -0.0519 in [5]; -0.0425 in experiment [6]. Further, the Bliss excess is -0.0272 in [7]; 0.0029 in [8]; -0.0207 in experiment [9]; -0.0104 in [10]; 0.008 in experiment [11]; 0.001 in [12]. Also, the Bliss excess is 0.0202 in experiment [13]; -0.0445 in [14]; -0.062 in [15]; -0.0022 in experiment [16]; -0.0061 in experiment [17]; -0.0295 in [18]. Moreover, the Bliss excess in [19] was 0.0168; in [20], 0.0009.

Consider `NC1(C(=O)N[C@@H](CCO)c2ccc(Cl)cc2)CCN(c2ncnc3[nH]ccc23)CC1` [Capivasertib] + C[C@@H]1COCCN1C2=NC(=NC(=C2)C3(CC3)[S@](=N)(=O)C)C4=C5C=CNC5=NC=C4 [AZD6738] (first compound max 10 µM, 7x7, partner max 10 µM), for which the Bliss excess was -0.0483 in experiment [1]; -0.0479 in experiment [2]; 0.0032 in experiment [3]; -0.0508 in experiment [4]; -0.0181 in experiment [5]; -0.034 in experiment [6]. In addition, the Bliss excess in [7] was -0.0169; in experiment [8] it was -0.0576; in experiment [9] it was -0.0127; in [10], -0.0201; in [11], 0.0045; in experiment [12], -0.0768. The Bliss excess in experiment [13] was -0.0091; in [14], -0.0878; in experiment [15], -0.0136; in experiment [16], 0.0034; in experiment [17], -0.0827; in experiment [18] it was 0.0167. For the same compound, the Bliss excess was -0.0268 in experiment [19] and -0.0722 in experiment [20].

For `COc1nnc2ccc(N3CCC(c4ccc(OCCN5CCN(C)C(=O)[C@H]5C)cc4)CC3)nn12` [AZD5153] + CN(CC[C@H](CSC1=CC=CC=C1)NC2=C(C=C(C=C2)S(=O)(=O)NC(=O)C3=CC=C(C=C3)N4CCC(CC4)[C@H](C5=CC=CC=C5C6=CC=C(C=C6)Cl)O)S(=O)(=O)C(F)(F)F)CCO [AZD4320] (first compound max 1 µM, 7x7, partner max 1 µM), the Bliss excess in [4] was -0.0094; in experiment [5] it was -0.0443; in [7] it was -0.0012; in experiment [8] it was -0.012; in [9] it was -0.0165; in [11], -0.0212. Moreover, the Bliss excess in experiment [13] is 0.0347; in experiment [15] it was 0.0352; in experiment [18], 0.0159; in experiment [19], 0.0269; in experiment [20], -0.0521.

As to `Cc1c2c(nn1C)CSCc1cc(n(C)n1)CSc1cc(c3ccccc3c1)OCCCc1c(C(=O)O)n(C)c3c-2c(Cl)ccc13` [AZD5991] + Cc1cc2ncnn2cc1Nc1ncc2c(n1)n(C1CCOCC1)c(=O)n2C [AZD7648] (first compound max 1 µM, 7x7, partner max 10 µM), the Bliss excess in experiment [1] is -0.0188; in [2] it was -0.0801; in experiment [3], -0.0058; in experiment [4] it was -0.104; in experiment [5], 0.0324; in experiment [6] it was -0.0645. In addition, the Bliss excess in experiment [7] was -0.0447; in [8], -0.104; in experiment [9], -0.0513; in experiment [10], 0.0345; in experiment [11], -0.0564; in [13] it was -0.0173. The Bliss excess in experiment [14] is -0.0218; in experiment [15] it was -0.0268; in [16] it was 0.0172; in [17], -0.0065; in experiment [18], 0.0041; in [19], -0.039. For the same compound, in experiment [20], the Bliss excess was -0.0449.

`Cc1c2c(nn1C)CSCc1cc(n(C)n1)CSc1cc(c3ccccc3c1)OCCCc1c(C(=O)O)n(C)c3c-2c(Cl)ccc13` [AZD5991] + C[C@@H]1COCCN1C2=NC(=NC(=C2)C3(CC3)[S@](=N)(=O)C)C4=C5C=CNC5=NC=C4 [AZD6738] (first compound max 1 µM, 7x7, partner max 10 µM): the Bliss excess in [1] was 0.0199; in experiment [2], 0.0405; in experiment [3], 0.0056; in experiment [4], -0.0279; in experiment [5], -0.0071; in [6] it was -0.0407. The Bliss excess was 0.0509 in experiment [7]; 0.0671 in [8]; 0.0085 in experiment [9]; -0.0625 in experiment [10]; -0.0078 in experiment [11]; -0.0027 in [12]. The Bliss excess in [13] was 0.08; in [14], 0.0052; in experiment [15], 0.0107; in experiment [16], -0.0396; in experiment [17], 0.0425; in experiment [18], 0.0874. Besides, in experiment [20], the Bliss excess is -0.0093.

As to `CC(=O)c1c(C)c2cnc(Nc3ccc(N4CCNCC4)cn3)nc2n(C2CCCC2)c1=O` [Palbociclib] + CN(CC[C@H](CSC1=CC=CC=C1)NC2=C(C=C(C=C2)S(=O)(=O)NC(=O)C3=CC=C(C=C3)N4CCC(CC4)[C@H](C5=CC=CC=C5C6=CC=C(C=C6)Cl)O)S(=O)(=O)C(F)(F)F)CCO [AZD4320] (first compound max 10 µM, 7x7, partner max 1 µM), the Bliss excess in [4] was -0.0407; in experiment [5] it was -0.014; in [7], -0.0715; in experiment [8], -0.0291; in experiment [9], -0.0253; in [11], 0.0814. Besides, the Bliss excess in experiment [13] is -0.0431; in experiment [15], 0.0102; in experiment [18], 0.0218; in experiment [19], -0.0915; in [20] it was -0.0652.
